# Measurements as given in patent publication US7973047B2, “Beta-Secretase modulators and methods of use” (Amgen Inc., priority 2010, dated 2011).
# Where two headings read alike, the source gives them in different places.
# What was measured:
# BACE = BACE (Homo sapiens, UniProt P56817); experiment: In vitro enzymatic BACE FRET (fluorescence resonance energy transfer) assay; type: biochemical; settings: BACE enzyme 0.2 nM, FRET substrate 50 nM, acetate buffer pH 4.2
# Protocol: In Vitro Enzymatic BACE FRET (Fluorescence Resonance Energy Transfer) Assay
# Assay buffer is 0.05 M acetate, pH 4.2, 10% DMSO final, 100 uM genapol (which is a nonionic detergent, below it's Critical Micelle Concentration). Enzyme (0.2 nM) is pre-incubated for one hour with inhibitors added in 1 uL of DMSO. Then the assay is started by the addition of FRET substrate (50 nM) and incubated for one hour. The FRET assay is terminated with by addition of Tris buffer, which raises the pH to neutrality, and the fluorescence is determined. The FRET substrate is a peptide with commercially available fluorophore and quencher, on opposite sides of the BACE cleavage site. Proteolytic cleavage of the FRET substrate releases quenching of fluorescence (excitation 488 nm and emission […]).
# [1] = tested on: Aβ40 in conditioned medium of cells stably expressing Amyloid Precursor Protein (APP); experiment: BACE cell-based assay: Aβ40 in conditioned medium by sandwich ELISA
# Procedure, shortened: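 Aβ40 in conditioned medium was read by time-resolved fluorescence sandwich ELISA (capture pAb40, detection biotinylated 6E10, 4° C incubations). Compounds were applied for 24 h to cells stably expressing APP, at 10 doses from 100 or 10 μM top, 0.1% DMSO. IC50 derived from percent of control.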
# [2] = cells stably expressing APP, 24 h incubation with compound, Aβ40 in supernatant by sandwich ELISA, read-out: IC50 values in the cell-based assay (inhibition or reduction of Aβ40)
# [3] = cell based assay data of Table 4, unit inferred, read-out: Cell Assay
# [4] = cell based assay data, Table 4, unit inferred, read-out: Cell Assay
# BACE, sequence (P56817 46-501, species assumed): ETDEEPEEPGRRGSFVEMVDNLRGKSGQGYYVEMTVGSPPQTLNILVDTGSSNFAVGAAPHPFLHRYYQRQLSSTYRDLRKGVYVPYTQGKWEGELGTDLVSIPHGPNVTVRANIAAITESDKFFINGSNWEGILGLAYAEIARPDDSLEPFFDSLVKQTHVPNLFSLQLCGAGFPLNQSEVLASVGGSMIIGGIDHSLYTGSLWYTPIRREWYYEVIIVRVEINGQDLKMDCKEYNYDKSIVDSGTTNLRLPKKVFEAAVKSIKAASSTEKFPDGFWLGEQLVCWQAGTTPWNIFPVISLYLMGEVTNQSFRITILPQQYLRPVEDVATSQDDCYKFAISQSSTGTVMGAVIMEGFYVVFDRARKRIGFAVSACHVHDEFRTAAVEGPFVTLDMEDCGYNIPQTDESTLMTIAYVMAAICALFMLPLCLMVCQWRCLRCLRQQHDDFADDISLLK
Compound,IC50 (BACE),"IC50 [1, 3]",other results
CC(=O)N[C@@H](Cc1ccccc1)[C@H](O)CN[C@H]1CC2(CCC2)Oc2ccc(N3CCCC3)cc21 [Example 264],≤ 5000 nM,–,–
COCC(=O)N[C@@H](Cc1cccc(Cl)c1)[C@H](O)CN[C@H]1CC(C)(C)Oc2ccc(Br)cc21 [Example 180],≤ 5000 nM,–,–
CC(=O)N[C@@H](Cc1cccc(Cl)c1)[C@H](O)CN[C@H]1CC(C)(C)Oc2ccc(Br)cc21 [Example 182],≤ 5000 nM,–,–
CC(=O)N[C@@H](Cc1ccccc1)[C@H](O)CN[C@H]1CC2(CCC2)Oc2ccc(N3C[C@@H]4C[C@H]3CO4)cc21 [Example 388],≤ 5000 nM,–,"IC50 [1, 2]: ≤ 5000 nM"
"CC(=O)N[C@@H](Cc1ccccc1)[C@H](O)CN[C@H]1CC2(CCC2)Oc2ncc(CC(F)(F)F)cc21 [Example 512, N-((1S,2R)-2-hydroxy-1-(phenylmethyl)-3-(((4′S)-6′-(2,2,2-trifluoroethyl)-3′,4′-dihydrospiro[cyclobutane-1,2′-pyrano[2,3-b]pyridin]-4′-yl)amino)propyl)acetamide]",≤ 5000 nM,–,"IC50 [1, 2]: ≤ 5000 nM"
"CC(=O)N[C@@H](Cc1cccc(F)c1)[C@H](O)CN[C@H]1CC2(CCC2)Oc2c1cc(CC(C)(C)C)nc2OC(C)C [Example 610, N-((1S,2R)-3-(((4′S)-6′-(2,2-dimethylpropyl)-8′-((1-methylethyl)oxy)-3′,4′-dihydrospiro[cyclobutane-1,2′-pyrano[2,3-c]pyridin]-4′-yl)amino)-1-((3-fluorophenyl)methyl)-2-hydroxypropyl)acetamide]",≤ 5000 nM,17.2 nM,–
CC(=O)N[C@@H](Cc1ccccc1)[C@H](O)CN[C@H]1CC2(CCC2)Oc2ccc(N3CCOC[C@@H]3C)cc21 [Example 139],≤ 5000 nM,–,"IC50 [1, 2]: ≤ 5000 nM"
CC(=O)N[C@@H](Cc1cccc(F)c1)[C@H](O)CN[C@H]1CC2(CCC2)Oc2ncc(CC(C)(C)C#N)cc21 [compound 651],–,4.24 nM,–
CC(=O)N[C@@H](Cc1ccc(Cl)cc1)[C@H](O)CN[C@H]1CC2(CCC2)Oc2ncc(CC(C)(C)F)cc21 [compound 828],–,–,"IC50 [1, 4]: 78.4 nM"
COc1cccc(C[C@H](NC(C)=O)[C@H](O)CN[C@H]2CC3(CCC3)Oc3ncc(CC(C)(C)C)cc32)c1 [compound 579],–,4.61 nM,–
CC(=O)N[C@@H](Cc1ccc(F)cc1)[C@H](O)CN[C@H]1CC(C)(C)Oc2cnc(CC(C)(C)C)cc21 [compound 799],–,–,"IC50 [1, 4]: 45.4 nM"
"C=CC[C@H](NC(C)=O)[C@H](O)CN[C@H]1CC2(CCC2)Oc2ncc(CC(C)(C)C)cc21 [Example 736, N-((1S)-1-((1R)-2-(((4′S)-6′-(2,2-dimethylpropyl)-3′,4′-dihydrospiro[cyclobutane-1,2′-pyrano[2,3-b]pyridin]-4′-yl)amino)-1-hydroxyethyl)-3-buten-1-yl)acetamide]",≤ 5000 nM,–,"IC50 [1, 4]: 34 nM"
CC(=O)N[C@@H](Cc1ccc(Cl)cc1)[C@H](O)CN[C@H]1CC2(CCC2)Oc2ncc(CC(C)(C)C)cc21 [compound 707],–,12.6 nM,–
